One data set relates to HCT116 xenograft. As to the kind of experiment: Anti-cancer effect in a HCT116 xenograft mouse model. It counts as in vivo, Athymic nude mouse (Hsd:Athymic Nude-Foxn1nu) male mice. As to conditions: formula 1 5 mg/kg once a week injection, irinotecan 20 mg/kg once per 4 days injection, intraperitoneal, 4 weeks. How it is done:
A human colorectal cancer cell line, HCT116 was purchased from ATCC (USA). The HCT116 cell line was maintained with RPMI1640 (Gibco, USA) including 10% fetal bovine serum (FBS; Gibco, USA).
The human colorectal carcinoma, HCT116 cell was subcutaneously administered in Athymic nude mouse (Hsd:Athymic Nude-Foxn1^nu) male mice (5×10^6 cell/head), and used in experiments when the size of tumor became 150-200 mm^3.
A compound of formula 1 was prepared by the preparation method disclosed in International Laid-open Patent Publication WO 2009-119980, and prepared at 0.5 mg/ml concentration by dissolving with 0.9% saline solution.
Irinotecan (Jeilpharm, Korea) was prepared at 2 mg/ml concentration by diluting with 5% dextrose solution.
The anti-cancer effect of the compound of formula 1 and irinotecan was estimated in the HCT116 xenograft model. […]
All the experimental groups were intraperitoneally administered for 4 weeks. Toxicity was observed by measuring weight of mice, and the growth of tumor was measured using calipers during experimental period. The volume of tumor was calculated according to the following calculation formula. tumor volume=(length×width^2)/2 […]

Another data set deals with Colo205 xenograft. The data set can be described thus: Anti-cancer effect in a Colo205 xenograft mouse model. It counts as in vivo, BALB/c-nu/nu male mice. The conditions noted are these: irinotecan 20 mg/kg once per 4 days injection; for size of tumor compared to administration group of an excipient: formula 1 4 mg/kg every day oral, during administration period (10 weeks); for dead mice: observed for 85 days, formula 1 4 mg/kg daily oral. The source says: A human colorectal cancer cell line, Colo205 was purchased from ATCC (USA). The Colo205 cell line was maintained with RPMI1640 (Gibco, USA) including 10% fetal bovine serum (FBS; Gibco, Grand Island, N.Y., USA) and 1% antibiotics (Gibco, USA).
The human colorectal carcinoma, Colo205 cell was subcutaneously administered in BALB/c-nu/nu male mice (5×10^6 cell/head), and after grouping in order to making an average size of tumor 165˜167 mm^3, used in experiments.
A compound of formula 1 was prepared by the preparation method disclosed in International Laid-open Patent Publication WO 2009-119980, and prepared at 0.4 mg/ml concentration by dissolving with distilled water.
Irinotecan (Boryung, Korea) was prepared at 2 mg/ml concentration by diluting with 5% glucose saline solution. The solution to be used was prepared on the day of use, and remained solution was discarded.
The anti-cancer effect of the compound of formula 1 and irinotecan was estimated in the Colo205 xenograft model. Experimental groups were divided into the following administration groups. • Control group: vehicle • Single administration group of the compound of formula 1: the compound of formula 1 (4 mg/kg, every day, oral) • Single administration group of irinotecan: irinotecan (20 mg/kg, once per 4 days, injection) • Coadministration group: the compound of formula 1 (4 mg/kg, every day, oral), irinotecan (20 mg/kg, once per 4 days, injection)
All the experimental groups were orally and intraperitoneally administered for 10 weeks. Toxicity was observed by measuring weight of mice, and the growth of tumor was measured using calipers during experimental period. The volume of tumor was calculated according to the following calculation formula. tumor volume=(length×width^2)/2
The data of size of tumor, regression of tumor, and body weight changes was tested using Bartlett's test at significance level α=0.05, and as a result of the test, data having no significance was tested using one-way analysis of variance at significance level α=0.05, and data having significance was tested using Kruskal-Wallis test at significance level α=0.05.
Statistical analysis between each group was performed using GraphPad PRISM® Version 5.0 (GraphPad Software, USA).
Vehicle administration group was euthanized at the day 43 because cancer became too big.

With `CCc1c2c(nc3ccc(OC(=O)N4CCC(N5CCCCC5)CC4)cc13)-c1cc3c(c(=O)n1C2)COC(=O)[C@]3(O)CC` [irinotecan], the “size of tumor compared to administration group of an excipient” value with HCT116 xenograft was “significantly decreased”. In the data set on Colo205 xenograft, the “size of tumor compared to administration group of an excipient” value is listed as “significantly decreased” and the dead mice entry is listed as “no dead subject”.
As to `COc1cc(C(=O)c2ccc(-c3csc(NC(=O)[C@@H](N)C(C)C)n3)cc2-n2cncn2)cc(OC)c1OC` [compound of formula 1, (S)-N-(4-(3-(1H-1,2,4-triazol-1-yl) -4-(3,4,5-trimethoxybenzoyl)phenyl)thiazol-2-yl)-2-amino-3-methylbutanamide], the “size of tumor compared to administration group of an excipient” value with HCT116 xenograft was “significantly decreased”. For the same compound, in the data set on Colo205 xenograft, the “size of tumor compared to administration group of an excipient” value is “significantly decreased” and the dead mice is on record as 8 mice.

Source of the values: patent US9980953B2, “Combined composition for preventing or treating cancer comprising a benzophenone thiazole derivatives as a VDA and topoisomerase inhibitor” (CHONG KUN DANG PHARMACEUTICAL CORP., priority 2016, dated 2018).
